Experimental data published in patent publication US12503452B2 (Curza Global, LLC, priority 2019, dated 2025).
Like-named read-outs stand apart in the source and are kept apart here.

Assays:
[1] = system: E. coli S30 extract (bacterial protein synthesis); experiment: E. coli S30 extract coupled transcription-translation luciferase assay (inhibition of bacterial protein synthesis); assay type: biochemical; details: read-out: S30 IC50 (μM/% inhib.)
Description: E. coli S30 extract: Inhibition of bacterial protein synthesis was determined using the E. coli S30 Extract System for Circular DNA (Promega catalog #L-2010) and Luciferase Assay Reagent (Promega catalog #E1500) with slight modifications to a published protocol. Fyfe, C., Sutcliffe, J. A. and Grossman, T. H. (2012) “Development and characterization of a Pseudomonas aeruginosa in vitro coupled transcription-translation assay system for evaluation of translation inhibitors” J. Microbiol. Methods 90(3), 256-261.
Compounds were serial diluted in 0.5 mL microcentrifuge tubes by mixing and transferring 50 μL from the highest concentration to 50 μL of water, mixing and transferring 50 μL of this 2-fold dilution to 50 μL of water. This mixing and transferring was repeated so that there are a total of 8 tubes with serial dilutions of compound at 10× the desired screening concentration that are ultimately diluted to 1× by the addition of S30 luciferase synthesis mixture. Serial dilutions of compounds were added (2 μL) to wells in a black round bottom 96-well plate. Water (2 μL) was used as a “no inhibitor” control in 4 wells/plate. No DNA control reaction mixture (20 μL; see below) was used as a control in 4 wells/plate for background luminescence. S30 luciferase synthesis mixture (18 μL; see below) was added to wells with compounds or water mixture and incubated at 37° C. for 1 hour. Reactions were stopped by transferring to 4° C. refrigerator for 5 minutes then 25 μL of luciferase activity mix was added. Luminescence was measured using a BioTek Synergy HTX plate reader. % Inhibition was determined relative to no inhibitor controls.
S30 luciferase synthesis mixture:
• 445 μL S30 extract, circular • 712 μL S30 Premix without amino acids • 4.45 μL pBESTluc™ DNA (1 μg/μL) • 78 μL complete amino acid mixture • 267 μL water No DNA control: • 20 μL S30 extract, circular • 32 μL S30 Premix without amino acids • 7 μL complete amino acid mixture • 21 μL water Rabbit Reticulocyte lysate

[2] = target: Rabbit Reticulocyte Lysate (eukaryotic protein synthesis); experiment: Rabbit reticulocyte lysate luciferase assay (inhibition of eukaryotic protein synthesis); assay type: biochemical; details: read-out: Rabbit reticulocyte IC50 (μM/% inhib.)
Description: Inhibition of eukaryotic protein synthesis was determined using the Rabbit Reticulocyte Lysate System, Nuclease-Treated from Promega (catalog #L-4960) with slight modifications to the manufacturer's protocol. Compounds were serial diluted in 0.5 mL microcentrifuge tubes by mixing and transferring 50 μL from the highest concentration to 50 μL of water, mixing and transferring 50 μL of this 2-fold dilution to 50 μL of water. This mixing and transferring was repeated so that there are a total of 8 tubes with serial dilutions of compound at 10× the desired screening concentration that are ultimately diluted to 1× by the addition of rabbit reticulocyte luciferase synthesis mixture. Serial dilutions of compounds were added ([…]) to wells in a black round bottom 96-well plate. Water (2.5 μL) was used as a “no inhibitor” control in 4 wells/plate. No RNA control reaction mixture ([…]; see below) was used as a control in 4 wells/plate for background luminescence. Rabbit reticulocyte luciferase synthesis mixture (22.5 μL; see below) was added to wells with compounds or water mixture and incubated at 30° C. for 90 minutes. Luciferase assay reagent (25 μL) was added with luminescence measured using a BioTek Synergy HTX plate reader. % Inhibition was determined relative to no inhibitor controls.
Rabbit reticulocyte luciferase synthesis mixture:
• 1,000 μL rabbit reticulocyte lysate • 5.7 μL Luciferase Control RNA (1 μg/μL) • 26 μL complete amino acid mixture • 395 μL water No RNA Control • 70 μL rabbit reticulocyte lysate • 2 μL complete amino acid mixture • 28 μL water Minimum Inhibitory Concentration (MIC)

[3] = class by IC50 or % inhibition @ 1 μM

Row | Compound | IC50 [1, 3] [µM] | IC50 [2, 3] [µM] | IC50 ([1]; % inhibition @ 1 μM) [µM] | IC50 ([2]; % inhibition @ 1 μM) [µM]
1 | CC1CN(Cc2ccc(-n3ccc(NC(=O)N4CCN(C(=O)[C@@](C)(N)CO)CC4)nc3=O)cc2)CCC1N (stereo in doubt) [Compound 224] | < 0.5 | > 1 |  | 
2 | CC1(N)CCN(CCc2ccc(-n3ccc(NC(=O)N4CCN(C(=O)C(C)(N)CO)CC4)nc3=O)cc2)CC1 (stereo in doubt) [Compound 361] |  |  | > 1 | > 1
3 | CC(C)(N)C(=O)N1CCN(C(=O)Nc2ccn(-c3ccc(CCN4CCC(CN)CC4)cc3)c(=O)n2)CC1 [Compound 1] | 0.5 to 1 | > 1 |  | 
4 | CC(C)(N)C(=O)N1CCN(C(=O)Nc2ccn(-c3cccc(CCN4CCCC(CN)C4)c3)c(=O)n2)CC1 (stereo not shown) [Compound 3] | > 1 |  |  | 
5 | CNC1CCN(CCc2cccc(-n3ccc(NC(=O)N4CCN(C(=O)C(C)(C)N)CC4)nc3=O)c2)CC1 [Compound 4] | > 1 |  |  | 
6 | CC(C)(N)C(=O)N1CCN(C(=O)Nc2ccn(-c3cccc(CCN4CC[C@@H](N)C4)c3)c(=O)n2)CC1 [Compound 5] | > 1 | > 1 |  | 
7 | CC(C)(N)C(=O)N1CCN(C(=O)Nc2ccn(-c3cccc(CCN4CC[C@H](N)C4)c3)c(=O)n2)CC1 [Compound 6] | > 1 | > 1 |  | 
8 | CC(C)(N)C(=O)N1CCN(C(=O)Nc2ccn(-c3ccc(CCN4CC[C@H](N)C4)cc3)c(=O)n2)CC1 [Compound 7] | > 1 |  |  | 
9 | CC(C)(N)C(=O)N1CCN(C(=O)Nc2ccn(-c3ccc(CCN4CCC[C@H](N)C4)cc3)c(=O)n2)CC1 [Compound 9] | > 1 |  |  | 
10 | CC(C)(N)C(=O)N1CCN(C(=O)Nc2ccn(-c3ccc(CCN4CCCC(CN)C4)cc3)c(=O)n2)CC1 (stereo not shown) [Compound 10] | < 0.5 | > 1 |  | 
11 | C[C@](N)(CO)C(=O)N1CCN(C(=O)Nc2ccn(-c3ccc(CCN4CC[C@@H](N)C4)cc3)c(=O)n2)CC1 [Compound 11] | 0.5 to 1 | > 1 |  | 
12 | C[C@](N)(CO)C(=O)N1CCN(C(=O)Nc2ccn(-c3ccc(CCN4CC[C@H](N)C4)cc3)c(=O)n2)CC1 [Compound 13] | > 1 | > 1 |  | 
13 | CC(C)(N)C(=O)N1CCN(C(=O)Nc2ccn(-c3ccc(CCN4CC(N)C4)cc3)c(=O)n2)CC1 [Compound 16] | > 1 | > 1 |  | 
14 | CC(C)(N)C(=O)N1CCN(C(=O)Nc2ccn(-c3ccc(CCN4CC[C@H](CN)C4)cc3)c(=O)n2)CC1 [Compound 17] | < 0.5 | > 1 |  | 
15 | CC(C)(N)C(=O)N1CCN(C(=O)Nc2ccn(-c3ccc(CCN4CC[C@@H](CN)C4)cc3)c(=O)n2)CC1 [Compound 18] | < 0.5 | > 1 |  | 
16 | CN(C)C1CCCN(CCc2ccc(-n3ccc(NC(=O)N4CCN(C(=O)C(C)(C)N)CC4)nc3=O)cc2)CC1 (stereo not shown) [Compound 36] | > 1 | > 1 |  | 
17 | CC(C)(N)C(=O)N1CCN(C(=O)Nc2ccn(-c3ccc(C(C)(C)CN4CCCC(N)CC4)cc3)c(=O)n2)CC1 (stereo not shown) [Compound 37] | > 1 | > 1 |  | 
18 | CC(C)(N)C(=O)N1CCN(C(=O)Nc2ccn(-c3ccc(C(C)(C)CN4CC[C@@H](CN)C4)cc3)c(=O)n2)CC1 [Compound 38] | > 1 | > 1 |  | 
19 | CC(C)(N)C(=O)N1CCN(C(=O)Nc2ccn(-c3ccc(C(C)(C)CN4CC[C@H](CN)C4)cc3)c(=O)n2)CC1 [Compound 39] | > 1 | > 1 |  | 
20 | CC(C)(N)C(=O)N1CCN(C(=O)Nc2ccn(-c3ccc(C4(CN5CCCC(N)CC5)CC4)cc3)c(=O)n2)CC1 (stereo not shown) [Compound 40] | > 1 | > 1 |  | 
21 | NCC1CCCN(C(=O)Nc2ccn(-c3ccc(CN4CCC(N)CC4)cc3)c(=O)n2)C1 (stereo not shown) [Compound 46] | > 1 | > 1 |  | 
22 | NC1CCN(Cc2ccc(-n3ccc(NC(=O)N4CCC[C@@H](N)C4)nc3=O)cc2)CC1 [Compound 47] | > 1 | > 1 |  | 

Row | Compound | IC50 [1, 3] [µM] | IC50 [2, 3] [µM] | IC50 ([1]; % inhibition @ 1 μM) [µM] | IC50 ([2]; % inhibition @ 1 μM) [µM]
23 | NC1CCN(Cc2ccc(-n3ccc(NC(=O)N4CCC[C@H](N)C4)nc3=O)cc2)CC1 [Compound 48] | > 1 | > 1 |  | 
24 | NC1CCN(Cc2ccc(-n3ccc(NC(=O)N4C[C@H]5CNC[C@H]5C4)nc3=O)cc2)CC1 [Compound 50] | > 1 | > 1 |  | 
25 | NCC1CN(C(=O)Nc2ccn(-c3ccc(CN4CCC(N)CC4)cc3)c(=O)n2)CCO1 (stereo not shown) [Compound 51] | > 1 | > 1 |  | 
26 | NC[C@H]1CCN(C(=O)Nc2ccn(-c3ccc(CN4CCC(N)CC4)cc3)c(=O)n2)C1 [Compound 52] | > 1 | > 1 |  | 
27 | NC[C@@H]1CCN(C(=O)Nc2ccn(-c3ccc(CN4CCC(N)CC4)cc3)c(=O)n2)C1 [Compound 53] | > 1 | > 1 |  | 
28 | NC1CCN(Cc2ccc(-n3ccc(NC(=O)N4CCCNCC4)nc3=O)cc2)CC1 [Compound 54] | > 1 | > 1 |  | 
29 | CCC1CN(C(=O)C(C)(C)N)CCN1C(=O)Nc1ccn(-c2ccc(CN3CCC(N)CC3)cc2)c(=O)n1 (stereo not shown) [Compound 55] | 0.5 to 1 | > 1 |  | 
30 | C[C@@H]1CN(C(=O)C(C)(C)N)[C@@H](C)CN1C(=O)Nc1ccn(-c2ccc(CN3CCC(N)CC3)cc2)c(=O)n1 [Compound 60] |  | > 1 |  | 
31 | COC(=O)[C@@H]1CN(C(=O)C(C)(C)N)CCN1C(=O)Nc1ccn(-c2ccc(CN3CCC(N)CC3)cc2)c(=O)n1 [Compound 63] | 0.5 to 1 | > 1 |  | 
32 | CC[C@H]1CN(C(=O)Nc2ccn(-c3ccc(CN4CCC(N)CC4)cc3)c(=O)n2)CCN1C(=O)C(C)(C)N [Compound 66] | > 1 | > 1 |  | 
33 | CC[C@@H]1CN(C(=O)Nc2ccn(-c3ccc(CN4CCC(N)CC4)cc3)c(=O)n2)CCN1C(=O)C(C)(C)N [Compound 67] | > 1 | > 1 |  | 
34 | C[C@H]1CN(C(=O)Nc2ccn(-c3ccc(CN4CCC(N)CC4)cc3)c(=O)n2)CCN1C(=O)C(C)(C)N [Compound 72] | 0.5 to 1 | > 1 |  | 
35 | CC(C)(N)C(=O)N1CCN(C(=O)Nc2ccn(-c3ccc(CN4CCC(N)CC4)cc3)c(=O)n2)CC1(C)C [Compound 73] |  | > 1 |  | 
36 | CC(C)(N)C(=O)N1CCN(C(=O)Nc2ccn(-c3ccc(CN4CCC(N)CC4)cc3)c(=O)n2)CC1c1ccccc1 (stereo not shown) [Compound 75] |  | > 1 |  | 
37 | C[C@@H]1CN(C(=O)C(C)(C)N)C[C@H](C)N1C(=O)Nc1ccn(-c2ccc(CN3CCC(N)CC3)cc2)c(=O)n1 [Compound 76] |  | > 1 |  | 
38 | CC(C)[C@H]1CN(C(=O)C(C)(C)N)CCN1C(=O)Nc1ccn(-c2ccc(CN3CCC(N)CC3)cc2)c(=O)n1 [Compound 77] | > 1 | > 1 |  | 
39 | CCC1CN(C(=O)Nc2ccn(-c3ccc(CN4CCC(N)CC4)cc3)c(=O)n2)CCN1C(=O)C(C)(C)N (stereo not shown) [Compound 78] | > 1 | > 1 |  | 
40 | CC(C)(N)C(=O)N1C[C@@H]2CC1CN2C(=O)Nc1ccn(-c2ccc(CN3CCC(N)CC3)cc2)c(=O)n1 [Compound 80] | 0.5 to 1 | > 1 |  | 
41 | CC(C)(N)C(=O)N1CCN(C(=O)Nc2ccn(-c3ccc(CN4CCC(N)CC4)cc3)c(=O)n2)C[C@H]1C(=O)O [Compound 81] | > 1 | > 1 |  | 
42 | CC[C@H]1CN(C(=O)C(C)(C)N)CCN1C(=O)Nc1ccn(-c2ccc(CN3CCC(N)CC3)cc2)c(=O)n1 [Compound 83] | > 1 | > 1 |  | 
43 | CC[C@@H]1CN(C(=O)C(C)(C)N)CCN1C(=O)Nc1ccn(-c2ccc(CN3CCC(N)CC3)cc2)c(=O)n1 [Compound 84] | > 1 | > 1 |  | 
44 | CC(C)(N)CC(=O)N1CCN(C(=O)Nc2ccn(-c3ccc(CCN4CCC(N)CC4)cc3)c(=O)n2)CC1 [Compound 197] | > 1 |  |  | 
